# Measured values as given in PMC5559490, “Synthesis of Saccharumoside-B analogue with potential of antiproliferative and pro-apoptotic activities” (Scientific Reports, 2017).
# Experiments:
# [1] = tested on: human peripheral blood mononuclear cells (PBMC); assay: MTT assay on normal PBMC; format: cell-based; conditions: MTT assay, normal cells, 48 h, read-out: IC50 PBMC (normal cells)
# MCF-7 cells = assay: Rhodamine-123 mitochondrial membrane potential assay, MCF-7; format: cell-based, human; conditions: 24 h
# Procedure: [Worded in the source for another cell line; this cell line is reported under the same test.] Mitochondrial membrane potential changes (ΔΨm) were determined by flow cytometry using rhodamine-123 (green-fluorescent dye)[32]. MIA PaCa-2 pancreatic cancer cells (1 × 10^6 cells/well) were exposed to the isolated compound (5 µM) for 24 h. Further, rhodamine-123 (200 nM) was added to the cells, which were kept in dark for 35 min. The cells were further centrifuged and the pellet was washed with phosphate buffered saline (1 ml). The intensity of fluorescence in the cells represented the mitochondrial membrane potential change (ΔΨm), which was measured using a flow cytometer.
# HL-60 cells = assay: Rhodamine-123 mitochondrial membrane potential assay, HL-60; format: cell-based, human; conditions: compared to untreated cells
# MCF-7 cancer cells = assay: Cell cycle analysis (PI, flow cytometry), MCF-7; format: cell-based, human; conditions: MCF-7 cells; 5 and 10 µM; 24 h
# Procedure: Cancer cells (1 × 10^6/ml) were treated with different concentrations of compound (5 and10 µM) for 24 h, fixed in cold 70% alcohol in PBS, washed, digested with DNase free RNase (400 µg/mL) at 37 °C for 45 min and stained with propidium iodide (10 µg/ml). Cells were analyzed for PI-DNA fluorescence by flow cytometerically using FACS CALIBUR (Becton Dickinson, Franklin Lakes, New Jersey, USA)[28]–[30]. The fluorescence intensity of subG0/GI cell fraction represents the dead cell population.
# Bax = assay: Quantification of Bax (immunometric assay), HL-60; format: cell-based, human; conditions: HL-60 cells; compared to untreated cells
# Procedure: Bax protein concentration determination was carried out using the Human Bax Enzyme Immunometric Assay kit (Assay Designs, Ann Arbor, MI, USA). The lysate (sample) preparation was carried out according to the manual. Following centrifugation (16,000 g for 15 min), the cells were resuspended in Modified Cell lysis buffer 4 [0.5 μL/mL of Sigma Protease Inhibitor Cocktail and 1 mM phenylmethylsulfonyl fluoride (PMSF)]. Cell lysate (100 μL) (sample) was added into the wells coated with monoclonal antibody to human Bax-α in triplicate. The plate was tapped gently to mix the contents. The sample was incubated at room temperature on a plate shaker for 1 h. The wells were emptied and washed with 5X wash buffer. After the final wash, the plate was tapped gently on a lint free paper towel to remove any remaining wash buffer. The sample was incubated again for 1 h at room temperature on a plate shaker after the addition of 100 μL of specific antibody (biotinylated monoclonal antibody to Bax-α) into each well. The wells were washed again with 5X wash buffer and emptied. Next, 100 μL of blue conjugate (streptavidin conjugated to horseradish peroxidase) was added into each well. […] The optical densities were read at 450 and 570 nm using an ELISA reader. Bax protein concentration was determined from the standard protein graphic using the optical densities of the samples[32].
# cytosolic cytochrome c [2] = assay: Cytosolic cytochrome c estimation (ELISA), MCF-7; format: cell-based, human; conditions: MCF-7 cells; 5, 10 µM
# Procedure: (§1) Cells were collected by centrifugation at 600 g for 5 min at 4 °C. The cell pellets were washed once with ice-cold PBS and resuspended in cytosol extraction buffer (20 mM Hepes-KOH, pH 7.5, 10 mM KCl, 1.5 mM MgCl2, 1 mM sodium EDTA, 1 mM sodium EGTA, 1 mM dithiothreitol and 0.1 mM PMSF) containing 250 mM sucrose on ice for 10 min. The cells were homogenized with the grinder on ice. Further, the homogenates were centrifuged at 700 g for 10 min at 4 °C. The supernatants were centrifuged at 10,000 × g for 30 min at 4 °C. Supernatant was collected as cytosolic fraction.
# (§2) Cytosolic cytochrome c levels were determined using quantitative sandwich enzyme immunoassay using microplate reader. Sample or standard (100 μL) was added into each well and incubated for 2 h at room temperature. The wells were washed several times with wash buffer. The plate was inverted and cleaned with paper toweling. Cytochrome c conjugate (200 μL) was added into each well and incubated for 2 h at room temperature. Wells were washed several times with wash buffer. Substrate solution (200 μL) was added into each well and incubated for 30 min at room temperature. Finally, stop solution (50 μL) was added into wells. The optical density (absorbance) of each well was determined using microplate reader at a 450 nm wavelength.
# cytosolic cytochrome c [3] = assay: Cytosolic cytochrome c estimation (ELISA), HL-60; format: cell-based, human; conditions: HL-60 cells; cytosolic fraction
# Procedure: as §1, §2
# caspase-3 = assay: Caspase-3 colorimetric assay, MCF-7; format: cell-based, human; conditions: MCF-7 cells
# Procedure: (§3) Caspases-3, -8 and -9 assays were measured according to manufacturer’s instructions using a caspase colorimetric protease kit (Abcam, Cambridge, MA, USA). Cells were treated with compounds for 48 h. The cells were lysed by the addition of 50 μL of chilled cell lysis buffer and incubated on ice for 10 min. The resulting cell lysate was centrifuged for 1 min at 10,000 g, and the supernatant was collected. The cell lysate containing […] of protein was incubated with […] of 4 mmol/L pNA-conjugated substrates (DEVD-pNA, IETD-pNA and LEHD-pNA; substrates for caspase-3, -8 and -9, respectively) at 37 °C for 3 h. The amount of pNA released was measured at 405 nm using an ELISA microplate reader (Bio rad). The caspases activity was expressed as fold difference, [33].
# caspase-8 = assay: Caspase-8 colorimetric assay, MCF-7; format: cell-based, human; conditions: MCF-7 cells; data not showed
# Procedure: as §3
smiles,measurement,setting,value
"COc1cc(CO)ccc1OC1OC(COC(=O)c2ccc(F)cc2)C(O)C(O)C1O (centres unmarked) [Compound 9f, (6-(4-(hydroxymethyl)-2-methoxyphenoxy)-tetrahydro-3,4,5-trihydroxy-2H-pyran-2-yl)methyl 4-fluorobenzoate]",IC50,[1],> 100 µM
same,mitochondria membrane potential loss,MCF-7 cells; 5 µM,41.33 ± 1.43%
same,mitochondria membrane potential loss,MCF-7 cells; 10 µM,52.67 ± 2.33%
same,mitochondria membrane potential loss,HL-60 cells; 5 µM,55.32 ± 2.14%
same,mitochondria membrane potential loss,HL-60 cells; 10 µM,65.56 ± 2.56%
same,effect on cell cycle distribution,MCF-7 cancer cells,cell cycle arrest at G0/G1 phase
same,effect on Bax protein levels,Bax,increase in Bax protein levels
same,effect on cytosolic cytochrome c levels,cytosolic cytochrome c [2],dose dependently increased
same,effect on cytosolic cytochrome c levels,cytosolic cytochrome c [3],dose dependently increased
same,effect on caspase-3 activity,caspase-3,enhanced caspase-3 and -9 activities
same,effect on caspase-8 activity,caspase-8,did not show considerable effect
